From article PMC6934184, “Selective DNA-PKcs inhibition extends the therapeutic index of localized radiotherapy and chemotherapy” (The Journal of Clinical Investigation, 2019)

Biological target: T1, STK38 (NDR) (Homo sapiens, UniProt Q15208)
T1 construct: purchased Thermo Fisher Scientific (Life Technologies) SelectScreen
Assay: SelectScreen LanthaScreen
Assay type: binding
Conditions: read-out: % displacement
In short: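 NU5455 was profiled across the SelectScreen Broad panel of kinase activity and binding assays. Z'LYTE reactions such as CSF1R ran at apparent Km ATP, while the Adapta CAMK1 assay used ATP listed as 10. Values are given as percent.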

T1 sequence (Q15208 whole entry): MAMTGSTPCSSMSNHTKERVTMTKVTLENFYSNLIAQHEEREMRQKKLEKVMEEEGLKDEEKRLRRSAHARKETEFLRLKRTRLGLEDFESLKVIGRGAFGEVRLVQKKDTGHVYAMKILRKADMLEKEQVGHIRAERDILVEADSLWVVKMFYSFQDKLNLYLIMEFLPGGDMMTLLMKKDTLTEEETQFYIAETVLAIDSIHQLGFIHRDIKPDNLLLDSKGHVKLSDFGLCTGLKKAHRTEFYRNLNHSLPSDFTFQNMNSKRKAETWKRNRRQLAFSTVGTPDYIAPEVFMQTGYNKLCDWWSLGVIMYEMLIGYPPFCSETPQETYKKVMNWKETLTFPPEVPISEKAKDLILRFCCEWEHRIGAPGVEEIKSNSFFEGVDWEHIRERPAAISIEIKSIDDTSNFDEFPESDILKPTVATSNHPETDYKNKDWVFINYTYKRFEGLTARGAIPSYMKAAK

For `CN(C(=O)CN1CCOCC1)c1ccc2sc3c(-c4cccc5c(=O)cc(N6CC7CCC(C6)O7)oc45)cccc3c2c1` [NU5455], the inhibition at 1 µM was -5.9%.
